One data set relates to MOLM-13 cells. Description: Proliferation assay, MOLM-13 (CellTiter-Glo, 7 days). The class given is cell-based, human. As for the experimental part:
(§1) The anti-proliferative effect of compounds was tested in human leukaemia cell lines. The cell lines […] and MV4; 11 each harbor an MLL translocation expressing the MLL fusion proteins MLL-AF9 and MLL-AF4, respectively. Each also express the wildtype protein from the second allele. OCI-AML3 cells carrying the NPM1c gene mutation were also tested.
(§2) MOLM-13 and HEL cells were cultured in RPMI 1640 (Gibco) supplemented with 10% FBS (Gibco) and 1% Pen/Strep (Gibco). MV4; 11 cells were cultured in IMDM (Gibco) supplemented with 10% FBS (Gibco) and 1% Pen/Strep (Gibco). OCI-AML3 cells were cultured in MEMa (Gibco) supplemented with 20% FBS (Gibco) and 1% Pen/Strep (Gibco).
(§3) To assess proliferative effects, 125 MOLM-13 cells, 300 MV4; 11 cells, 75 OCI-AML3 cells, and 200 HEL cells were seeded in 40 μL media per well in 384-well ViewPlates (Perkin Elmer, 6007480). Cell seeding numbers were chosen based on growth curves to ensure linear growth throughout the experiments. Test compounds were added at 3.16-fold serial dilutions in DMSO from […] and DMSO content was normalized to 0.1%. Cells were incubated for 7 days at 37° C. and 5% CO2. A day 0 plate was seeded for each cell line and used as a standard control.
(§4) To measure cell viability, CellTiter-Glo 2.0 (Promega, G9242) luminescent growth indicator was used. 10 μL CellTiter-Glo reagent was added per well. Plates were placed on a plate shaker for 2 minutes in the dark and left to incubate off the shaker for another 8 minutes in the dark, for a total of 10 minutes. Plates were read using an EnVision plate reader (Perkin Elmer) using the Luminescence aperture and a measurement time of 0.1 second.
(§5) Data were analyzed in Genedata Screener®. IC50 values were determined by plotting % inhibition versus log compound concentration and using a one site dose response model. Raw data signals were normalized using 0.1% DMSO media only as background control, 0.1% DMSO with cells no compound as 100% viability (maximum signal), and day 0 0.1% DM with cells no compound as 0% viability (minimum signal).
(In general: ATP-based viability assays read luminescence as a measure of living cells.)

For the next data set, the system named is HEL cells. Description: Proliferation assay, HEL control cell line (CellTiter-Glo, 7 days). The class given is cell-based, human. Particulars: Homo sapiens, HEL, 168 h. As for the experimental part: as §1, §2, §3, §4, §5
A short description of data set [1]: Human liver microsomes (HLMs) intrinsic clearance assay. The class given is in vitro ADME. Particulars: human, microsomes; for HLM CLint: 1 µM, pH 7.4. How it is done:
Human liver microsomes (HLMs) were obtained from Corning (UltraPool 150 donors) at a concentration of 20 mg/mL protein. HLMs were stored at −80° C. until use and prior to use, thawed in a 37° C. water bath and then stored on wet ice. DMSO and NADPH were sourced from Solarbio S&T Co Ltd.
2 mL of 10 mM DMSO stock solutions of test compound were added to 198 mL acetonitrile to produce […] concentration. 1325 mL of 20 mg/mL HLM were added to 22260 mL of phosphate buffer to produce the HLM mixture. An 8.334 mg/mL solution of NADPH was prepared in 100 mmol/L pH 7.4 phosphate buffer.
222.5 mL of the HLM mixture and 25 mL of the 10 mM NADPH were added into the incubation plates (1 mL 96 well deep well plate from Thermo). The mixture was vortexed for 10 seconds at 1000 rpm. The incubation plate was pre-warmed in a water bath at 37° C. for 8 minutes. 2.5 mL of the […] stocks of test compound was added to initiate the reaction. The mix was vortexed for 12 seconds at 1000 rpm and incubated at 37° C. The incubation mixture (250 mL) contained 1 mg/mL HLM, 1 mmol/L NADPH and […].
The reaction was quenched by transferring 20 mL of the incubation mixture at 0.5, 5, 10, 15, 20 and 30 minutes into the quenching plate containing 100 mL of cold stop solution (acetonitrile containing internal standards). The plate was vortexed at 800 rpm for 2 minutes.
The quenching plates were centrifuged for 20 minutes at 4000 rpm and 4° C. 40 mL of the supernatant was transferred into a 96-well analysis plate containing 160 mL of water. The analysis plate was shaken at 1000 rpm for 2 minutes and the samples analysed by LC-MS/MS.
Peak areas were determined from extracted ion chromatograms. Percent parent remaining was calculated from peak area of test compound. The slope value, k, was determined by linear regression of the natural logarithm of percent parent remaining versus incubation time. The in vitro half-life (t1/2) was determined from the slope value by the equation: […]
Conversion of the in vitro half-life (min) into in vitro CLint (mL/min/mg proteins) was completed using the equation: […]
In general terms: Liver microsomes are a subcellular fraction often used to study metabolism.

A further data set has as its system MV4;11 cells. Description: Proliferation assay, MV4;11 (CellTiter-Glo, 7 days). Particulars: Homo sapiens, MV4-11, 168 h, read-out: MV-4-11 IC50. The data set is classed as cell-based, human. As for the experimental part: as §1, §2, §3, §4, §5
A further data set deals with OCI-AML3 cells. Description: Proliferation assay, OCI-AML3 (CellTiter-Glo, 7 days). The data set is classed as cell-based, human. Particulars: Homo sapiens, OCI-AML-3, 168 h. How it is done: as §1, §2, §3, §4, §5
A further data set concerns the target hERG (Homo sapiens (Human), UniProt Q12809). Description: hERG assay 1 (standard), SyncroPatch 384PE. The class given is cell-based. Particulars: CHO cells, room temperature, up to 40 uM. How it is done: Experiments were performed on the SyncroPatch 384PE (Nanion Technologies) high throughput patch clamp platform at room temperature and used medium resistance chips with 4 patch holes per site. hERG-expressing Chinese hamster ovary K1 (CHO) cell line was used in assay-ready format and kept in liquid nitrogen until use. 2 vials of cells (10×10^6 cells per vial) were thawed and added to 20 ml Hepes-buffered saline solution (HBSS). HBSS comprised 140 mM NaCl, 4 mM KCl, 10 mM HEPES and 5 mM Glucose (pH 7.4). The internal patch clamp solution was KF 120 mM, KCl 20 mM, HEPES 10 mM, EGTA 10 mM, and 25 μM Escin (pH 7.2). After the initial sealing process was complete, a seal enhancer solution comprising HBSS supplemented with 10 mM CaCl2 and 1 mM MgCl2 was applied to cells. The external solution was then exchanged (4 times) for external patch clamp solution comprising NaCl 80 mM, KCl 4 mM, HEPES 10 mM, CaCl2 2 mM, MgCl2 1 mM, glucose 5 mM, and NMDG 60 mM (pH7.4). All compounds were dispensed from initial 10 mM DMSO stocks. An industry standard +60/−40 mV voltage protocol was applied every 15 seconds. Compounds were tested in a 6-point cumulative assay (final DMSO concentration 0.33%), with a concentration range of 139 nM to 40 uM. Data were analyzed in Genedata Screener®. IC50 values were determined by plotting % inhibition versus log compound concentration and using a one site dose response model. Only wells that passed acceptance criteria for this platform were used in this analysis (30 MegaOhm seal resistance, Z prime >0.4 and current size >0.2 nA).

The next data set addresses muscarinic M2 receptor (Homo sapiens (Human), UniProt P08172). Description: Muscarinic M2 receptor binding assay (assay 1). Particulars: [3H]AF-DX 384 2 nM, Cheng Prusoff. How it is done:
Cell membrane homogenates (60 μg protein) were incubated for 60 minutes at 22° C. with 2 nM [3H]AF-DX 384 in the absence or presence of the test compound in a buffer containing 50 mM Tris-HCl (pH 7.4), 120 mM NaCl, 5 mM KCl, 5 mM MgCl2, and 1 mM EDTA. Nonspecific binding was determined in the presence of 1 μM atropine. Following incubation, the samples were filtered rapidly under vacuum through glass fiber filters (GF/B, Packard) presoaked with 0.3% PEI and rinsed several times with ice-cold 50 mM Tris-HCl using a 96-sample cell harvester (Unifilter, Packard). The filters were dried then counted for radioactivity in a scintillation counter (Topcount, Packard) using a scintillation cocktail (Microscint 0, Packard). The results were expressed as a percent inhibition of the control radioligand specific binding, from which the Ki was calculated. Data were analyzed using software developed at Cerep (Hill software) and validated by comparison with data generated by the commercial software SigmaPlot®4.0 for Windows® (© 1997 by SPSS Inc.). The inhibition constant, Ki, was calculated using the Cheng Prusoff equation:
where L=concentration of ligand in the assay, and Kd=affinity of the ligand for the receptor. The standard reference compound was methoctramine, which was tested in each experiment at several concentrations to obtain a competition curve from which its IC50 was calculated.

Here are results for eight molecules from patent US20240335431A1, “1-H-PYRROLO[2,3-c]PYRIDINE COMPOUNDS” (Acerta Pharma B.V., priority 2023, published 2024).

Where two headings read alike, the source gives them in different places.

Chain of hERG (Q12809 whole entry): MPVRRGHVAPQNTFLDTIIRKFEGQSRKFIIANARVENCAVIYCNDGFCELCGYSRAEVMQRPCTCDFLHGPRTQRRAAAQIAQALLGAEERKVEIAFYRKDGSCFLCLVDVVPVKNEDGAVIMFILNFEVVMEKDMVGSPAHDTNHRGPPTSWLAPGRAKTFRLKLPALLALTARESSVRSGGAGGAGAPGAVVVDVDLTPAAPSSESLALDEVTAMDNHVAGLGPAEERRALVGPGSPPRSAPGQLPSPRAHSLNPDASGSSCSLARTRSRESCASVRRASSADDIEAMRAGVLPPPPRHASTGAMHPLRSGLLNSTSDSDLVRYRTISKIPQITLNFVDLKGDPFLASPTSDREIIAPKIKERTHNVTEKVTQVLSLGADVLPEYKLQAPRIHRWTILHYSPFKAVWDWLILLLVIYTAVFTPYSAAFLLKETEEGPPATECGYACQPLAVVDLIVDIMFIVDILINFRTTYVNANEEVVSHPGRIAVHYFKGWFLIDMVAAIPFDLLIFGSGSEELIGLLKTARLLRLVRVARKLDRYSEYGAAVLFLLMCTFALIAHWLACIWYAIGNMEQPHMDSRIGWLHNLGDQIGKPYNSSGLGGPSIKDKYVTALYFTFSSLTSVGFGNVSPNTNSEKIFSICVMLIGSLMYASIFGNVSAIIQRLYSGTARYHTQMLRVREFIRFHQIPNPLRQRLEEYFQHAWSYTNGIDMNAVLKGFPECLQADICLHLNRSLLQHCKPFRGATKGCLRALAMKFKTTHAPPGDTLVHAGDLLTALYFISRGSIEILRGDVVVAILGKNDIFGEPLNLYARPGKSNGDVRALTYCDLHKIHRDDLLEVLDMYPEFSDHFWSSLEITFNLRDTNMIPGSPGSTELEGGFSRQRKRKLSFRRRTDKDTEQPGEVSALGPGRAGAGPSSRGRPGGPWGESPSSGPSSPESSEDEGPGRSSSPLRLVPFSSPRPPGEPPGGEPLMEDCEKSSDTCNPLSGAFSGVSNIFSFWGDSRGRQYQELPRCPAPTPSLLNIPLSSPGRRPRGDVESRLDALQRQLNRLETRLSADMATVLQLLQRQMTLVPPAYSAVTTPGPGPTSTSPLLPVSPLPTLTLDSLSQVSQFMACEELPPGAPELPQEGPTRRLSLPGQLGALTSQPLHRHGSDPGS
Chain of muscarinic M2 receptor (P08172 whole entry): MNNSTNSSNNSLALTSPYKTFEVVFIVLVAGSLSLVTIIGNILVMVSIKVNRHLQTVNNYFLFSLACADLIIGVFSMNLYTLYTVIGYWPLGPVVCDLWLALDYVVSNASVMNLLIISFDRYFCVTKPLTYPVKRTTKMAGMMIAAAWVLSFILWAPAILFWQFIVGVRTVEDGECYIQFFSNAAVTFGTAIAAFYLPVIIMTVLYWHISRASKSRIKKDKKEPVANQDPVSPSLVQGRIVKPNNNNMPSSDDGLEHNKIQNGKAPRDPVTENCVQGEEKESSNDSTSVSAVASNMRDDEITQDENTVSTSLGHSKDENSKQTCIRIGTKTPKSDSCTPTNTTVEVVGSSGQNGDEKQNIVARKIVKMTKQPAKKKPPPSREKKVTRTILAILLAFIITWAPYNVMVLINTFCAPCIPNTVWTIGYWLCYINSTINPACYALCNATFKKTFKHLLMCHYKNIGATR

Regarding `CC(C)N(C(=O)c1cc(F)ccc1-n1cc(C(=O)[C@@H]2CCCN(C(=O)[C@H]3N[C@@H]4CC[C@H]3C4)CC2)c2ccncc21)C(C)C` (relative stereo) [Example 45, 2-(3-((R*)-1-((1R,3S,4S)-2-Azabicyclo[2.2.1]heptane-3-carbonyl)azepane-4-carbonyl)-1H-pyrrolo[2,3-c]pyridin-1-yl)-5-fluoro-N,N-diisopropylbenzamide 1·formic acid], the IC50 in the data set with MOLM-13 cells (Homo sapiens, MOLM-13, 168 h) was 109 nM; in the data set on HEL cells it was above 10000 nM. The molecule further yielded a microsomal CLint at 1 µM in data set [1] (pH 7.4, HLM CLint) of 139 µL/min/mg.
`CCN(C(=O)c1cc(F)ccc1-n1c(C)c(C(=O)C2CCN(C(=O)[C@@H]3CCC(C)(C)N3)CC2)c2ccncc21)C(C)C` (single isomer, unassigned) [Example 50-1]: the IC50 in the data set with MOLM-13 cells was 2070 nM; with HEL cells, above 10000 nM. In data set [1], the “HLM CLint” value amounted to 183 µL/min/mg.
In the case of `Cc1c(C(=O)[C@@H]2CCN(C(=O)[C@H]3NC[C@@H]4C[C@@H]43)[C@@H](C)C2)c2ccncc2n1-c1ccc(F)cc1C(=O)N(CC(F)(F)F)C(C)C` (single isomer, unassigned) [Example 53-1, 2-(3-((2R*,4S*)-1-((1S,2S,5R)-3-Azabicyclo[3.1.0]hexane-2-carbonyl)-2-methylpiperidine-4-carbonyl)-2-methyl-1H-pyrrolo[2,3-c]pyridin-1-yl)-5-fluoro-N-isopropyl-N-(2,2,2-trifluoroethyl)benzamide], the IC50 in the data set on MOLM-13 cells is 3270 nM; in the data set with HEL cells it was above 10000 nM. The “HLM CLint” value in data set [1] was found to be 116 µL/min/mg.
Consider `Cc1c(C(=O)C2CCN(C(=O)[C@@H]3CCC4(CC4)N3)CC2)c2ccncc2n1-c1ccc(F)cc1C(=O)N1[C@H](C)COC[C@H]1C` (single isomer, unassigned) [Example 58-1], for which the IC50 in the data set with MOLM-13 cells and in the data set on HEL cells was above 10000 nM in each case. Besides, the microsomal CLint at 1 µM in data set [1] (pH 7.4, 1 mg/mL HLM, NADPH, read-out: HLM CLint) was 128 µL/min/mg.
For `CC(C)N(C(=O)c1cc(F)ccc1-n1cc(C(=O)C2CN(C(=O)[C@H]3N[C@@H]4CC[C@H]3C4)C2)c2ccnnc21)C(C)C` [Example 14, 2-(5-(1-((1R,3S,4S)-2-Azabicyclo[2.2.1]heptane-3-carbonyl)azetidine-3-carbonyl)-7H-pyrrolo[2,3-c]pyridazin-7-yl)-5-fluoro-N,N-diisopropylbenzamide 1·formic acid], the IC50 in the data set on MOLM-13 cells (Homo sapiens, MOLM-13, 168 h) is 476 nM; in the data set with MV4;11 cells, 345 nM; with OCI-AML3 cells, 626 nM; in the data set with HEL cells, above 10000 nM. In addition, the microsomal CLint at 1 µM in data set [1] (pH 7.4, HLM CLint) came to 38 µL/min/mg.
Consider `CCN(C(=O)c1cc(F)ccc1-n1cc(C(=O)C2CCN(C(=O)[C@H]3NC4CCC3CC4)CC2)c2ccncc21)C(C)C` [Example 29, (S)-2-(3-(1-(2-Azabicyclo[2.2.2]octane-3-carbonyl)piperidine-4-carbonyl)-1H-pyrrolo[2,3-c]pyridin-1-yl)-N-ethyl-5-fluoro-N-isopropylbenzamide], for which the IC50 in the data set with MOLM-13 cells (Homo sapiens, MOLM-13, 168 h) was 58 nM; in the data set on MV4;11 cells, 57 nM; with HEL cells, above 10000 nM; on hERG, above 40000 nM. Further, affinity at muscarinic M2 receptor was put at a Ki of 200 nM. The molecule also had a microsomal CLint at 1 µM in data set [1] (pH 7.4, HLM CLint) of 26 µL/min/mg.
As to `Cc1c(C(=O)C2CCN(C(=O)[C@@H]3CC[C@H](C)N3)CC2)c2ccncc2n1-c1ccc(F)cc1C(=O)N(C(C)C)C(C)C` [Example 60, 5-Fluoro-N,N-diisopropyl-2-(2-methyl-3-(1-((2S,5S)-5-methylpyrrolidine-2-carbonyl)piperidine-4-carbonyl)-1H-pyrrolo[2,3-c]pyridin-1-yl)benzamide], the IC50 in the data set on MOLM-13 cells (Homo sapiens, MOLM-13, 168 h) was 71 nM; in the data set on MV4;11 cells, 88 nM; in the data set on HEL cells, above 10000 nM; against hERG, above 40000 nM. In addition, the microsomal CLint at 1 µM in data set [1] (pH 7.4, HLM CLint) was determined as 106 µL/min/mg.
For the molecule `Cc1c(C(=O)C2CCN(C(=O)[C@@H]3CC[C@@H](C)N3)CC2)c2ccncc2n1-c1ccc(F)cc1C(=O)N(C(C)C)C(C)C` [Example 61, 5-Fluoro-N,N-diisopropyl-2-(2-methyl-3-(1-((2S,5R)-5-methylpyrrolidine-2-carbonyl)piperidine-4-carbonyl)-1H-pyrrolo[2,3-c]pyridin-1-yl)benzamide], the 50% inhibitory concentration (IC50) in the data set with MOLM-13 cells (Homo sapiens, MOLM-13, 168 h) was 92 nM; in the data set with MV4;11 cells, 114 nM; with HEL cells it was above 10000 nM; on hERG, above 40000 nM. The same molecule came in with a microsomal CLint at 1 µM in data set [1] (pH 7.4, HLM CLint) of 83 µL/min/mg.

In general, IC50 refers to the point on the concentration scale where inhibition reaches its midpoint. Broadly, the Ki is the equilibrium dissociation constant of an inhibitor or competing ligand from its target.
